The text below walks through data of the supplement of paper PMC10307832.

What all share (assay): relative viability (nuclei count vs DMSO), 5 days (fraction); higher = more cells survive
Compound in assay [1]: C1CC(C1)(C(=O)O)C(=O)O.[NH2-].[NH2-].[Pt+2] [Carboplatin] + CC(=O)c1c(C)c2cnc(Nc3ccc(N4CCNCC4)cn3)nc2n(C2CCCC2)c1=O [Palbociclib] (partner 0.5 µM)
Put shortly:
(§1)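 The day after seeding in 1536-well plates, lung cancer cell lines were treated by pin tool with a single drug, or with a fixed anchor-drug dose together with five library-drug doses (not always all listed) in √10 steps. After 5 days, a combined fix-and-stain solution (final 0.05% Triton X-100, 1% formaldehyde, 1 ug/ml Hoechst) was added. Nuclei counted on 4× images gave relative viability as treated counts over vehicle counts, reported as the median of duplicate plates.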

Compound in assay [2]: C1CC(C1)(C(=O)O)C(=O)O.[NH2-].[NH2-].[Pt+2] [Carboplatin] + CC(C)C[C@H](NC(=O)[C@H](Cc1ccccc1)NC(=O)c1cnccn1)B(O)O [Bortezomib] (partner 0.002 µM)
Put shortly:
as §1

Compound in assay [3]: CC[C@H](C)N1C=C(C2=C(C=C(C=C21)C3=CN=C(C=C3)N4CCNCC4)C(=O)NCC5=C(C=C(NC5=O)C)C)C [GSK126] + C[C@]1(O)C[C@@H](c2nc(-c3ccc4ccc(-c5ccccc5)nc4c3)c3c(N)nccn32)C1 [Linsitinib] (partner 1 µM)
Put shortly:
as §1

Compound in assay [4]: NS(=O)(=O)OC[C@@H]1C[C@@H](n2ccc3c(N[C@H]4CCc5ccccc54)ncnc32)C[C@@H]1O [MLN4924] + COc1cccc2cc(-c3nc([C@H]4CC[C@H](C(=O)O)CC4)n4ncnc(N)c34)[nH]c12 [OSI-027] (partner 0.5 µM)
Put shortly: as §1

Take NCI-H2228: the relative viability was 0.898 in assay [1] (first compound 0.08 µM); 0.841 in assay [1] (first compound 0.253 µM); 0.654 in assay [1] (first compound 0.8 µM); 0.737 in assay [1] (first compound 2.53 µM); 0.552 in assay [1] (first compound 8 µM); 1.05 in assay [2] (first compound 0.08 µM). Moreover, the relative viability turned out to be 1.35 in assay [2] (first compound 0.253 µM); 1.07 in assay [2] (first compound 0.8 µM); 0.905 in assay [2] (first compound 2.53 µM); 0.467 in assay [2] (first compound 8 µM); 1.11 in assay [3] (first compound 0.08 µM); 0.681 in assay [3] (first compound 0.253 µM). Besides, the relative viability in assay [3] (first compound 0.8 µM) was 0.755; in assay [3] (first compound 2.53 µM), 0.708; in assay [3] (first compound 8 µM) it was 0.542; in assay [4] (first compound 0.04 µM) it was 0.611; in assay [4] (first compound 0.1265 µM) it was 0.683; in assay [4] (first compound 0.4 µM), 0.148. Moreover, the relative viability is 0.141 in assay [4] (first compound 1.265 µM) and 0.14 in assay [4] (first compound 4 µM).
As for NCI-H2347, the relative viability was 0.456 in assay [1] (first compound 0.08 µM); 0.418 in assay [1] (first compound 0.253 µM); 0.423 in assay [1] (first compound 0.8 µM); 0.482 in assay [1] (first compound 2.53 µM); 0.42 in assay [1] (first compound 8 µM); 1.22 in assay [2] (first compound 0.08 µM). Also, the relative viability stood at 0.815 in assay [2] (first compound 0.253 µM); 1.13 in assay [2] (first compound 0.8 µM); 1.05 in assay [2] (first compound 2.53 µM); 0.768 in assay [2] (first compound 8 µM); 1.04 in assay [3] (first compound 0.08 µM); 0.943 in assay [3] (first compound 0.253 µM). In addition, the relative viability in assay [3] (first compound 0.8 µM) came to 0.916; in assay [3] (first compound 2.53 µM), 0.885; in assay [3] (first compound 8 µM) it was 0.965; in assay [4] (first compound 0.04 µM), 0.39; in assay [4] (first compound 0.1265 µM), 0.375; in assay [4] (first compound 0.4 µM) it was 0.354. For the same cell line, the relative viability in assay [4] (first compound 1.265 µM) is 0.214; in assay [4] (first compound 4 µM), 0.29.
With NCI-H2405, the relative viability in assay [1] (first compound 0.08 µM) is 0.552; in assay [1] (first compound 0.253 µM), 0.542; in assay [1] (first compound 0.8 µM), 0.542; in assay [1] (first compound 2.53 µM) it was 0.543; in assay [1] (first compound 8 µM), 0.449; in assay [2] (first compound 0.08 µM), 1.03. Further, the relative viability in assay [2] (first compound 0.253 µM) came out at 1; in assay [2] (first compound 0.8 µM), 0.994; in assay [2] (first compound 2.53 µM), 0.912; in assay [2] (first compound 8 µM) it was 0.89; in assay [3] (first compound 0.08 µM) it was 1.02; in assay [3] (first compound 0.253 µM) it was 0.829. For the same cell line, the relative viability in assay [3] (first compound 0.8 µM) is 0.876; in assay [3] (first compound 2.53 µM) it was 1; in assay [3] (first compound 8 µM) it was 0.927; in assay [4] (first compound 0.04 µM), 0.749; in assay [4] (first compound 0.1265 µM) it was 0.684; in assay [4] (first compound 0.4 µM), 0.493. In addition, the relative viability in assay [4] (first compound 1.265 µM) amounted to 0.309; in assay [4] (first compound 4 µM), 0.271.
As to NCI-H3122, the relative viability in assay [1] (first compound 0.08 µM) was 0.17; in assay [1] (first compound 0.253 µM) it was 0.211; in assay [1] (first compound 0.8 µM), 0.17; in assay [1] (first compound 2.53 µM), 0.183; in assay [1] (first compound 8 µM), 0.189; in assay [2] (first compound 0.08 µM), 1.07. Besides, the relative viability was 1.02 in assay [2] (first compound 0.253 µM); 1.01 in assay [2] (first compound 0.8 µM); 0.944 in assay [2] (first compound 2.53 µM); 0.96 in assay [2] (first compound 8 µM); 1.03 in assay [3] (first compound 0.08 µM); 0.998 in assay [3] (first compound 0.253 µM). Further, the relative viability came out at 0.86 in assay [3] (first compound 0.8 µM); 1.05 in assay [3] (first compound 2.53 µM); 1.04 in assay [3] (first compound 8 µM); 0.917 in assay [4] (first compound 0.04 µM); 0.603 in assay [4] (first compound 0.1265 µM); 0.219 in assay [4] (first compound 0.4 µM). For the same cell line, the relative viability in assay [4] (first compound 1.265 µM) was determined as 0.122; in assay [4] (first compound 4 µM) it was 0.121.
